Values quoted from earlier work in publication PMC10052035, “Virtual Screening, Structural Analysis, and Formation Thermodynamics of Carbamazepine Cocrystals” (Pharmaceutics, 2023).
Like-named read-outs stand apart in the source and are kept apart here.

Experiments:
[1] = cited from earlier work
[2] = cited from earlier work; remark: listed apart in the source

For NC(=O)c1ccccc1O.O=C1CN(N=Cc2ccc([N+](=O)[O-])o2)C(=O)N1 [[Nitrofurantoin + Salicylamide] (1:1)], the TΔformS ([1]; 298 K, ref [19]) is listed as 0.3 ± 0.7 kJ/mol, the ΔformG ([1]; 298 K, ref [19]) is listed as -0.6 ± 0.4 kJ/mol and the ΔformH ([1]; 298 K, ref [19]) is listed as -0.3 ± 0.6 kJ/mol. For the same compound, the TΔformS ([1]; 298 K, ref [19], listed as 14) was “≈ 0 kJ·mol-1”.
For NC(=O)N1c2ccccc2C=Cc2ccccc21.NC(=O)c1ccc(O)cc1 [[CBZ + 4-Hydroxybenzamide] (1:1)], the TΔformS ([1]; 298 K, ref [22]) is listed as -5.7 ± 0.5 kJ/mol, the ΔformG ([1]; 298 K, ref [22]) is listed as -6.7 ± 0.5 kJ/mol and the ΔformH ([1]; 298 K, ref [22]) is listed as -12.4 ± 0.9 kJ/mol.
For NC(=O)c1ccncc1.O=C1CN(N=Cc2ccc([N+](=O)[O-])o2)C(=O)N1 [[Nitrofurantoin + Isonicotinamide] (1:1)], the TΔformS ([1]; 298 K, ref [19]) is given as 6.0 ± 0.7 kJ/mol, the ΔformG ([1]; 298 K, ref [19]) is given as -4.7 ± 0.4 kJ/mol and the ΔformH ([1]; 298 K, ref [19]) is given as 1.3 ± 0.6 kJ/mol.
For NC(=O)c1ccccc1N.O=C1CN(N=Cc2ccc([N+](=O)[O-])o2)C(=O)N1, the TΔformS ([1]; 298 K, ref [19]) is given as 1.3 ± 1.1 kJ/mol, the ΔformG ([1]; 298 K, ref [19]) is given as -4.5 ± 0.5 kJ/mol and the ΔformH ([1]; 298 K, ref [19]) is given as -3.3 ± 0.8 kJ/mol. For the same compound, the TΔformS ([1]; 298 K, ref [19], listed as 13) was “≈ 0 kJ·mol-1”.
For CC(O)(CS(=O)(=O)c1ccc(F)cc1)C(=O)Nc1ccc(C#N)c(C(F)(F)F)c1.NC(=O)c1ccccc1O (centres unmarked) [[Bicalutamide + Salicylamide] (1:1)], the TΔformS ([1]; 298 K, ref [11]) is listed as -9.2 ± 0.8 kJ/mol, the ΔformG ([1]; 298 K, ref [11]) is listed as -2.2 ± 0.3 kJ/mol and the ΔformH ([1]; 298 K, ref [11]) is listed as -11.4 ± 0.5 kJ/mol.
For NCC(=O)O.NCC(=O)O.O=C(O)/C=C/C(=O)O [[Glycine + Fu maric acid] (2:1)], the TΔformS ([1]; 298 K, ref [17]) is listed as -1.4 ± 0.6 kJ/mol, the ΔformG ([1]; 298 K, ref [17]) is listed as -4.4 ± 0.3 kJ/mol and the ΔformH ([1]; 298 K, ref [17]) is listed as -5.8 ± 0.5 kJ/mol.
For CC(O)Cc1nsc(Nc2cccc(Cl)c2)n1.COc1cc(C(=O)O)ccc1O (centres unmarked) [[XIa+Vanillic acid] (1:1)], the TΔformS ([1]; 298 K, ref [12]) is listed as -5.2 ± 1.3 kJ/mol, the ΔformG ([1]; 298 K, ref [12]) is listed as -5.3 ± 0.4 kJ/mol and the ΔformH ([1]; 298 K, ref [12]) is listed as -10.5 ± 0.9 kJ/mol.
For Cc1ccc(-c2cc(C(F)(F)F)nn2-c2ccc(S(N)(=O)=O)cc2)cc1.NC(=O)c1cccnc1 [[Celecoxib + Nicotinamide] (1:1)], the TΔformS ([1]; 298 K, ref [20]) is given as 6.9 ± 2.0 kJ/mol, the ΔformG ([1]; 298 K, ref [20]) is given as -0.35 ± 0.05 kJ/mol and the ΔformH ([1]; 298 K, ref [20]) is given as 6.5 ± 1.5 kJ/mol.
For Cc1cc(C)nc(NS(=O)(=O)c2ccc(N)cc2)n1.O=C(O)c1ccccc1O [[Sulfamethazine + salicylic acid] (1:1)], the TΔformS ([1]; 293 K, ref [21]) is listed as 29.7 kJ/mol, the ΔformG ([1]; 293 K, ref [21]) is listed as -7.1 kJ/mol and the ΔformH ([1]; 293 K, ref [21]) is listed as 23.1 kJ/mol.
For NC(=O)c1ccccn1.O=C1CN(N=Cc2ccc([N+](=O)[O-])o2)C(=O)N1 [[Nitrofurantoin + Picolinamide] (1:1)], the TΔformS ([1]; 298 K, ref [19]) is listed as 0.6 ± 0.8 kJ/mol, the ΔformG ([1]; 298 K, ref [19]) is listed as -4.9 ± 0.5 kJ/mol and the ΔformH ([1]; 298 K, ref [19]) is listed as -4.4 ± 0.7 kJ/mol. The TΔformS ([1]; 298 K, ref [19], listed as 12) was “≈ 0 kJ·mol-1”.
For O=C(O)CCCC(=O)O [Glutaric acid], the “log(S0), intrinsic solubility” value ([2]; 2-propanol, ref [10]) is listed as 0.56 mol⋅L-1, the “log(S0), intrinsic solubility” value ([2]; Ethanol, ref [10]) is listed as 0.45 mol⋅L-1 and the “log(S0), intrinsic solubility” value ([2]; Ethyl acetate, ref [10]) is listed as 0 mol⋅L-1.
In the case of NC(=O)c1cccnc1 [Nicotinamide], the “log(S0), intrinsic solubility” value ([2]; 2-propanol, ref [10]) is given as -0.2 mol⋅L-1, the “log(S0), intrinsic solubility” value ([2]; Ethanol, ref [10]) is given as 0.04 mol⋅L-1 and the “log(S0), intrinsic solubility” value ([2]; Ethyl acetate, ref [10]) is given as -0.96 mol⋅L-1.
For NCC(=O)O.O=C(O)/C=C\C(=O)O [[Glycine + Maleic acid] (1:1)], the TΔformS ([1]; 298 K, ref [17]) is listed as -5.7 ± 1.0 kJ/mol, the ΔformG ([1]; 298 K, ref [17]) is listed as -5.4 ± 0.4 kJ/mol and the ΔformH ([1]; 298 K, ref [17]) is listed as -11.1 ± 0.9 kJ/mol.
For O=C(NN=Cc1ccccc1O)c1ccncc1.O=C1NS(=O)(=O)c2ccccc21 [[Salinazid + Saccharin] (1:1)], the TΔformS ([1]; 298 K, ref [13]) is listed as -11.1 ± 1.6 kJ/mol, the ΔformG ([1]; 298 K, ref [13]) is listed as -7.3 ± 0.6 kJ/mol and the ΔformH ([1]; 298 K, ref [13]) is listed as -18.4 ± 1.0 kJ/mol.
In the case of COc1cc(C=NNC(=O)c2ccncc2)ccc1O.O=C1NS(=O)(=O)c2ccccc21 [[Vanillin isoniazid + Saccharin] (1:1)], the TΔformS ([1]; 298 K, ref [13]) is given as -4.4 ± 1.9 kJ/mol, the ΔformG ([1]; 298 K, ref [13]) is given as -9.1 ± 0.8 kJ/mol and the ΔformH ([1]; 298 K, ref [13]) is given as -13.5 ± 1.1 kJ/mol.
For CC(O)(CS(=O)(=O)c1ccc(F)cc1)C(=O)Nc1ccc(C#N)c(C(F)(F)F)c1.NC(=O)c1ccccc1 (centres unmarked) [[Bicalutamide + Benzamide] (1:1)], the TΔformS ([1]; 298 K, ref [11]) is listed as -16.2 ± 1.1 kJ/mol, the ΔformG ([1]; 298 K, ref [11]) is listed as -3.4 ± 0.3 kJ/mol and the ΔformH ([1]; 298 K, ref [11]) is listed as -19.6 ± 0.8 kJ/mol.
In the case of NC(=O)c1cnccn1.Nc1ccc(C(=O)O)cc1, the TΔformS ([1]; 298 K, ref [14]) is listed as -33.5 ± 3.2 kJ/mol, the ΔformG ([1]; 298 K, ref [14]) is listed as -6.1 ± 0.3 kJ/mol and the ΔformH ([1]; 298 K, ref [14]) is listed as -39.6 ± 2.9 kJ/mol.
For CNC(=O)c1cc(Oc2ccc(NC(=O)Nc3ccc(Cl)c(C(F)(F)F)c3)cc2)ccn1.O=c1[nH]cc(F)c(=O)[nH]1 [[Sorafenib + 5-fluorouracil] (1:1)], the TΔformS ([1]; 303 K, ref [18]) is given as 0.02 ± 0.1 kJ/mol, the ΔformG ([1]; 303 K, ref [18]) is given as -4.78 ± 0.09 kJ/mol and the ΔformH ([1]; 303 K, ref [18]) is given as -4.76 ± 0.07 kJ/mol. The TΔformS ([1]; 303 K, ref [18], listed as 11) was “≈ 0 kJ·mol-1”.
In the case of Cc1cc(O)c2c(c1)C(=O)c1cc(O)cc(O)c1C2=O [Emodin], the “log(S0), intrinsic solubility” value ([2]; 2-propanol, ref [6]) is given as -1.68 mol⋅L-1, the “log(S0), intrinsic solubility” value ([2]; Acetone, ref [6]) is given as -1.29 mol⋅L-1 and the “log(S0), intrinsic solubility” value ([2]; Ethanol, ref [6]) is given as -1.74 mol⋅L-1. The “log(S0), intrinsic solubility” value ([2]; Ethyl acetate, ref [6]) was -1.43 mol⋅L-1.
For NC(=O)N1c2ccccc2C=Cc2ccccc21.NC(=O)c1ccccc1 [[CBZ + Benzamide] (1:1)], the TΔformS ([1]; 298 K, ref [22]) is given as 30.5 ± 2.9 kJ/mol, the ΔformG ([1]; 298 K, ref [22]) is given as -4.8 ± 0.3 kJ/mol and the ΔformH ([1]; 298 K, ref [22]) is given as 25.7 ± 1.9 kJ/mol.
In the case of COc1ccc(C(C)=O)c(O)c1 [Paeonol], the “log(S0), intrinsic solubility” value ([2]; 2-propanol, ref [6]) is given as -0.12 mol⋅L-1, the “log(S0), intrinsic solubility” value ([2]; Ethanol, ref [6]) is given as 0.08 mol⋅L-1 and the “log(S0), intrinsic solubility” value ([2]; Methanol, ref [6]) is given as 0.22 mol⋅L-1.
In the case of NC(=O)N1c2ccccc2C=Cc2ccccc21.O=C1NS(=O)(=O)c2ccccc21 [[CBZ + Saccharin] (1:1)], the TΔformS ([1]; 306 K, ref [15]) is listed as -1.3 kJ/mol, the ΔformG ([1]; 306 K, ref [15]) is listed as -4.6 kJ/mol and the ΔformH ([1]; 306 K, ref [15]) is listed as -5.9 ± 0.9 kJ/mol.
For NC(=O)N1c2ccccc2C=Cc2ccccc21.NC(=O)c1ccncc1 [[CBZ + isonicotinamide] (1:1)], the TΔformS ([1]; 298 K, ref [22]) is listed as 22.0 ± 2.5 kJ/mol, the ΔformG ([1]; 298 K, ref [22]) is listed as -2.1 ± 0.1 kJ/mol and the ΔformH ([1]; 298 K, ref [22]) is listed as 19.9 ± 1.9 kJ/mol.
